Assay results reported in patent US6472348B1, “Pyridone derivatives and herbicides” (Kumiai Chemical Industry Co., Ltd., priority 1996, dated 2002).

test system: barnyardgrass (Ec); assay: Test Example 3: herbicidal effects by upland field foliage treatment; assay type: in vivo; design: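 grade of growth control; 5 = at least 90%; 4 = 70 to 90%; 3 = 50 to 70%; 2 = 30 to 50%; 1 = 10 to 30%; 0 = under 10%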; details: 100 g of the active ingredient per 10 ares, evaluated on the 14th day after treatment
Method in brief: (§1)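 Two-week-old greenhouse seedlings, raised in sand-filled pots (120 cm^2) with seed covered by soil, receive a foliar application. Effects are then evaluated by standard grades 14 days later, plants remaining in the greenhouse meanwhile.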

SMILES | Herbicidal effects Ec
CCC(C)Oc1cc(-c2ccc(C(F)(F)F)n(C)c2=O)c(F)cc1Cl (stereo not shown) [1-167] | 5

test system: slender amaranth (Am); assay: as above; assay type: in vivo; design: scale not given here; details: 100 g of the active ingredient per 10 ares, evaluated on the 14th day after treatment
Method in brief: as §1

SMILES | Herbicidal effects Am
CCC(C)Oc1cc(-c2ccc(C(F)(F)F)n(C)c2=O)c(F)cc1Cl (stereo not shown) [1-167] | 5

test system: common lambsquarters (Ch); assay: as above; assay type: in vivo; design: scale not given here; details: 100 g of the active ingredient per 10 ares, evaluated on the 14th day after treatment
Method in brief: as §1

SMILES | Herbicidal effects Ch
CCC(C)Oc1cc(-c2ccc(C(F)(F)F)n(C)c2=O)c(F)cc1Cl (stereo not shown) [1-167] | 5

test system: rice flatsedge (Ci); assay: as above; assay type: in vivo; design: scale not given here; details: 100 g of the active ingredient per 10 ares, evaluated on the 14th day after treatment
Method in brief: as §1

SMILES | Herbicidal effects Ci
CCC(C)Oc1cc(-c2ccc(C(F)(F)F)n(C)c2=O)c(F)cc1Cl (stereo not shown) [1-167] | 5

test system: Diaitaria ciliaris (Di); assay: as above; assay type: in vivo; design: scale not given here; details: 100 g of the active ingredient per 10 ares, evaluated on the 14th day after treatment
Method in brief: as §1

SMILES | Herbicidal effects Di
CCC(C)Oc1cc(-c2ccc(C(F)(F)F)n(C)c2=O)c(F)cc1Cl (stereo not shown) [1-167] | 5

test system: pale smartweed (Po); assay: as above; assay type: in vivo; design: scale not given here; details: 100 g of the active ingredient per 10 ares, evaluated on the 14th day after treatment
Method in brief: as §1

SMILES | Herbicidal effects Po
CCC(C)Oc1cc(-c2ccc(C(F)(F)F)n(C)c2=O)c(F)cc1Cl (stereo not shown) [1-167] | 5

test system: soybean (Gl); assay: Test Example 6: crop plant selectivity by upland field soil treatment (soybean), phytotoxicity; assay type: in vivo; design: scale not given here; details: dose 6.3 g ai/10a, 21st day after application
Method in brief: (§2)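 Greenhouse pot test with soil-applied compound after sowing soybean and weeds in sand; effects graded on day 21 after application.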

SMILES | Phytotoxicity Gl
CCC(C)Oc1cc(-c2ccc(C(F)(F)F)n(C)c2=O)c(F)cc1Cl (stereo not shown) [1-167] | 1

test system: slender amaranth (Am); assay: Test Example 6: crop plant selectivity by upland field soil treatment (soybean), herbicidal effects; assay type: in vivo; design: scale not given here; details: dose 6.3 g ai/10a, 21st day after application
Method in brief: as §2

SMILES | Herbicidal effects Am
CCC(C)Oc1cc(-c2ccc(C(F)(F)F)n(C)c2=O)c(F)cc1Cl (stereo not shown) [1-167] | 5

test system: common lambsquarters (Ch); assay: as above; assay type: in vivo; design: scale not given here; details: dose 6.3 g ai/10a, 21st day after application
Method in brief: as §2

SMILES | Herbicidal effects Ch
CCC(C)Oc1cc(-c2ccc(C(F)(F)F)n(C)c2=O)c(F)cc1Cl (stereo not shown) [1-167] | 5

test system: green foxtail (Se); assay: as above; assay type: in vivo; design: scale not given here; details: dose 6.3 g ai/10a, 21st day after application
Method in brief: as §2

SMILES | Herbicidal effects Se
CCC(C)Oc1cc(-c2ccc(C(F)(F)F)n(C)c2=O)c(F)cc1Cl (stereo not shown) [1-167] | 5

test system: China jute (Ab); assay: as above; assay type: in vivo; design: scale not given here; details: dose 6.3 g ai/10a, 21st day after application
Method in brief: as §2

SMILES | Herbicidal effects Ab
CCC(C)Oc1cc(-c2ccc(C(F)(F)F)n(C)c2=O)c(F)cc1Cl (stereo not shown) [1-167] | 5

test system: pale smartweed (Po); assay: as above; assay type: in vivo; design: scale not given here; details: dose 6.3 g ai/10a, 21st day after application
Method in brief: as §2

SMILES | Herbicidal effects Po
CCC(C)Oc1cc(-c2ccc(C(F)(F)F)n(C)c2=O)c(F)cc1Cl (stereo not shown) [1-167] | 5

test system: slender amaranth (Am); assay: Test Example 5: crop plant selectivity by upland field soil treatment (wheat), herbicidal effects; assay type: in vivo; design: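 grade of growth control; 5 = at least 90%; 4 = 70 to 90%; 3 = 50 to 70%; 2 = 30 to 50%; 1 = 10 to 30%; 0 = under 10%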; details: dose 6.3 g ai/10a, 21st day after application
Protocol: (§3) (Test on Crop Plant Selectivity by Upland Field Soil Treatment)
(§4) In a plastic pot (surface area: 600 cm^2) filled with sand, wheat (Tr), Diaitaria ciliaris (Di), green foxtail (Se), pale smartweed (Po), slender amaranth (Am), common lambsquarters (Ch) and China jute (Ab) were sown and covered with soil. […] The plants were then cultured in a green house, and the evaluation of the herbicidal effects and phytotoxicity was conducted on the 21st day after the application in accordance with the standards as identified in Table 47. Symbol—represents “not tested”.

SMILES | Herbicidal effects Am
CCC(C)Oc1cc(-c2ccc(C(F)(F)F)n(C)c2=O)c(F)cc1Cl (stereo not shown) [1-167] | 5

test system: common lambsquarters (Ch); assay: as above; assay type: in vivo; design: scale not given here; details: dose 6.3 g ai/10a, 21st day after application
Protocol: as §3, §4

SMILES | Herbicidal effects Ch
CCC(C)Oc1cc(-c2ccc(C(F)(F)F)n(C)c2=O)c(F)cc1Cl (stereo not shown) [1-167] | 5

test system: green foxtail (Se); assay: as above; assay type: in vivo; design: scale not given here; details: dose 6.3 g ai/10a, 21st day after application
Protocol: as §3, §4

SMILES | Herbicidal effects Se
CCC(C)Oc1cc(-c2ccc(C(F)(F)F)n(C)c2=O)c(F)cc1Cl (stereo not shown) [1-167] | 5

test system: China jute (Ab); assay: as above; assay type: in vivo; design: scale not given here; details: dose 6.3 g ai/10a, 21st day after application
Protocol: as §3, §4

SMILES | Herbicidal effects Ab
CCC(C)Oc1cc(-c2ccc(C(F)(F)F)n(C)c2=O)c(F)cc1Cl (stereo not shown) [1-167] | 5

test system: pale smartweed (Po); assay: as above; assay type: in vivo; design: scale not given here; details: dose 6.3 g ai/10a, 21st day after application
Protocol: as §3, §4

SMILES | Herbicidal effects Po
CCC(C)Oc1cc(-c2ccc(C(F)(F)F)n(C)c2=O)c(F)cc1Cl (stereo not shown) [1-167] | 5

test system: slender amaranth (Am); assay: Test Example 7: crop plant selectivity by upland field soil treatment (corn), herbicidal effects; assay type: in vivo; design: scale not given here; details: dose 6.3 g ai/10a, 21st day after application
Protocol: as §3
(§5) In a plastic pot (surface area: 600 cm^2) filled with sand, corn (Ze), green foxtail (Se), pale smartweed (Po), slender amaranth (Am), common lambsquarters (Ch) and China jute (Ab) were sown and covered with soil. […] The plants were then cultured in a green house, and the evaluation of the herbicidal effects and phytotoxicity was conducted on the 21st day after the application in accordance with the standards as identified in Table 47.

SMILES | Herbicidal effects Am
CCC(C)Oc1cc(-c2ccc(C(F)(F)F)n(C)c2=O)c(F)cc1Cl (stereo not shown) [1-167] | 5

test system: common lambsquarters (Ch); assay: as above; assay type: in vivo; design: scale not given here; details: dose 6.3 g ai/10a, 21st day after application
Protocol: as §3, §5

SMILES | Herbicidal effects Ch
CCC(C)Oc1cc(-c2ccc(C(F)(F)F)n(C)c2=O)c(F)cc1Cl (stereo not shown) [1-167] | 5
